Experimental findings from patent US20050197350A1, “Novel quinoline, tetrahydroquinazoline, and pyrimidine derivatives and methods of treatment related to the use thereof” (TAISHO PHARMACEUTICAL CO., LTD., priority 2003, published 2005) are described below.

This test deals with MCH receptors. Put plainly: MCH receptor activity class (method not given).
The mark [1] stands for this setting: class by percent of control at 10^-7 M or IC50.
Setting [2] is: class by percent of control at 10^−7 M or IC50.
The mark [3] stands for this setting: MCH receptor, class by percent of control at 10^-7 M or IC50.
[4] abbreviates: activity class 1-3: percent of control at 10^-7 M or IC50.
[5] abbreviates: MCH receptor activity class 1-3 (percent of control at 10^-7 M or IC50).

Consider `CCCCc1ccc(NC(=S)N[C@H]2CC[C@@H](Nc3nc4c(c(N(C)C)n3)CCCC4)CC2)c(C)c1` [compound 1793], for which, under setting [1], the class is listed as 3 (Class 3 The value of percent of control at 10^−7 M was more than 60% or the value of IC50 was more than 200 nM.).
In the case of `Cc1cc(N(C)C)nc(N[C@H]2CC[C@@H](CNC(=O)c3ccc(Br)cc3)CC2)n1` [compound 2762], the class under setting [2] is recorded as 1 (Class 1: The value of percent of control at 10^−7 M was less than 40% or the value of IC50 was less than 50 nM.).
Regarding `CN(C)c1cc(N[C@H]2CC[C@@H](CNCc3ccccc3C#N)CC2)nc2ccccc12` [compound 1147], the class (activity class per percent of control at 10^-7 M or IC50) was 3 (Class 3 The value of percent of control at 10^−7 M was more than 60% or the value of IC50 was more than 200 nM.).
In the case of `CN(C)c1cc(N[C@H]2CC[C@@H](NC(=O)c3ccccc3Oc3ccccc3)CC2)nc2ccccc12` [compound 754, N-(cis-4-{[4-(dimethylamino)quinolin-2-yl]amino}cyclohexyl)-2-phenoxybenzamide], the class under setting [1] is on record as 2 (Class 2: The value of percent of control at 10^−7 M was from 40% to 60% or the value of IC′50 was from 50 nM to 200 nM.).
Regarding `Cc1cc(C(=O)NC[C@H]2CC[C@@H](Nc3nc4c(c(N(C)C)n3)CCCC4)CC2)ccc1Br` [compound 619], the class under setting [1] is recorded as 3 (Class 3 The value of percent of control at 10^−7 M was more than 60% or the value of IC50 was more than 200 nM.).
On to `COc1ccc(CC(=O)N[C@H]2CC[C@@H](Nc3cc(N(C)C)c4ccccc4n3)CC2)cc1` [compound 69], for which, under setting [3], the class was 3 (Class 3 The value of percent of control at 10^−7 M was more than 60% or the value of IC50 was more than 200 nM.).
With `CN(C)c1nc(N[C@H]2CC[C@@H](CNC(=O)c3cc(C(F)(F)F)cc(C(F)(F)F)c3)CC2)nc2c1CCCC2` [compound 640], the class under setting [1] is 3 (Class 3 The value of percent of control at 10^−7 M was more than 60% or the value of IC50 was more than 200 nM.).
Regarding `CN(C)c1nc(N[C@H]2CC[C@@H](NC(=O)Cc3cccs3)CC2)nc2c1CCCC2` [compound 489], where the note is “class 1-3 by percent of control at 10^-7 M or IC50”, the class is 3 (Class 3 The value of percent of control at 10^−7 M was more than 60% or the value of IC50 was more than 200 nM.).
Take `CN(C)c1ccnc(N[C@H]2CC[C@@H](CNC(=O)c3cccc(Cl)c3)CC2)n1` [compound 369]: the class under setting [1] is listed as 3 (Class 3 The value of percent of control at 10^−7 M was more than 60% or the value of IC50 was more than 200 nM.).
Regarding `CN(C)c1cc(N[C@H]2CC[C@@H](NC(=O)OCC(C)(C)C)CC2)nc2ccccc12` [compound 1540], the class under setting [4] is 3 (Class 3 The value of percent of control at 10^−7 M was more than 60% or the value of IC50 was more than 200 nM.).
`CN(C)c1cc(N[C@H]2CC[C@@H](CNCc3csc4ccccc34)CC2)nc2ccccc12` [compound 1178]: under setting [1], the class is on record as 3 (Class 3 The value of percent of control at 10^−7 M was more than 60% or the value of IC50 was more than 200 nM.).
For the compound `COc1cc(COC(=O)NC[C@H]2CC[C@@H](Nc3cc(N(C)C)c4ccccc4n3)CC2)c([N+](=O)[O-])cc1OC` [compound 1561], under setting [4], the class is 3 (Class 3 The value of percent of control at 10^−7 M was more than 60% or the value of IC50 was more than 200 nM.).
For `CCOc1ccc2ccccc2c1C(=O)N[C@H]1CC[C@@H](Nc2cc(N(C)C)c3ccccc3n2)CC1` [compound 129], the class under setting [3] is on record as 3 (Class 3 The value of percent of control at 10^−7 M was more than 60% or the value of IC50 was more than 200 nM.).
On to `CN(C)c1ccnc(N[C@H]2CC[C@@H](CNC(=O)Oc3ccc4ccccc4c3)CC2)n1` [compound 1649], for which, under setting [4], the class is recorded as 3 (Class 3 The value of percent of control at 10^−7 M was more than 60% or the value of IC50 was more than 200 nM.).
For the compound `CCn1c2ccccc2c2cc(CNC[C@H]3CC[C@@H](Nc4nc5c(c(N(C)C)n4)CCCC5)CC3)ccc21` [compound 1394], the class under setting [1] is recorded as 3 (Class 3 The value of percent of control at 10^−7 M was more than 60% or the value of IC50 was more than 200 nM.).
Take `Cc1cc(C(=O)NC[C@H]2CC[C@@H](Nc3ncc(C)c(N(C)C)n3)CC2)ccc1Br` [compound 2703, 4-bromo-N-[(cis-4-{[4-(dimethylamino)-5-methylpyrimidin-2-yl]amino}cyclohexyl)methyl]-3-methylbenzamide]: under setting [2], the class is listed as 1 (Class 1: The value of percent of control at 10^−7 M was less than 40% or the value of IC50 was less than 50 nM.).
Consider `CSc1sc(C(=O)N[C@H]2CC[C@@H](Nc3nccc(N(C)C)n3)CC2)c(I)c1S(=O)(=O)C(C)C` [compound 905], for which, under setting [1], the class is on record as 2 (Class 2: The value of percent of control at 10^−7 M was from 40% to 60% or the value of IC′50 was from 50 nM to 200 nM.).
Consider `CN(C)c1nc(N[C@H]2CC[C@@H](NC(=S)Nc3ccc(S(=O)(=O)N4CCCCC4)cc3)CC2)nc2c1CCCC2` [compound 2057], for which the class under setting [3] is 3 (Class 3 The value of percent of control at 10^−7 M was more than 60% or the value of IC50 was more than 200 nM.).
Consider `COc1cc(CNC[C@H]2CC[C@@H](Nc3nc4c(c(N(C)C)n3)CCCC4)CC2)cc(OC)c1OC` [compound 1378], for which, under setting [1], the class is recorded as 2 (Class 2: The value of percent of control at 10^−7 M was from 40% to 60% or the value of IC′50 was from 50 nM to 200 nM.).
Take `Cc1cc(N(C)C)nc(N[C@H]2CC[C@@H](CNC(=O)c3cc(Cl)cc(Cl)c3)CC2)n1` [compound 2766, 3,5-dichloro-N-[(cis-4-{[4-(dimethylamino)-6-methylpyrimidin-2-yl]amino}cyclohexyl)methyl]benzamide]: the class under setting [2] was 2 (Class 2: The value of percent of control at 10^−7 M was from 40% to 60% or the value of IC′50 was from 50 nM to 200 nM.).
As for `CN(C)c1cc(N[C@H]2CC[C@@H](NC(=O)Cc3ccc(F)cc3Cl)CC2)nc2ccccc12` [compound 675], the class under setting [1] is recorded as 3 (Class 3 The value of percent of control at 10^−7 M was more than 60% or the value of IC50 was more than 200 nM.).
Regarding `Cc1cnc(N[C@H]2CC[C@@H](NC(=O)c3cccnc3Oc3ccccc3Cl)CC2)nc1N(C)C` [compound 2892, 2-(2-chlorophenoxy)-N-(cis-4-{[4-(dimethylamino)-5-methylpyrimidin-2-yl]amino}cyclohexyl)nicotinamide], the class under setting [2] is 1 (Class 1: The value of percent of control at 10^−7 M was less than 40% or the value of IC50 was less than 50 nM.).
As for `CN(C)c1ccnc(N[C@H]2CC[C@@H](NC(=O)c3cc(Cl)ccc3O)CC2)n1` [compound 919], the class under setting [1] is listed as 3 (Class 3 The value of percent of control at 10^−7 M was more than 60% or the value of IC50 was more than 200 nM.).
With `CN(C)c1ccnc(N[C@H]2CC[C@@H](NC(=S)Nc3c(F)cc(Br)cc3Br)CC2)n1` [compound 2345], the class under setting [5] is listed as 2 (Class 2: The value of percent of control at 10^−7 M was from 40% to 60% or the value of IC′50 was from 50 nM to 200 nM.).
As to `Cc1ccc(C(=O)NC[C@H]2CC[C@@H](Nc3nc4c(c(N(C)C)n3)CCCC4)CC2)cc1F` [compound 636], the class under setting [1] is given as 3 (Class 3 The value of percent of control at 10^−7 M was more than 60% or the value of IC50 was more than 200 nM.).
As for `CN(C)c1ccnc(N[C@H]2CC[C@@H](CNC(=O)Nc3ccc(F)c(F)c3)CC2)n1` [compound 2448], under setting [5], the class is 1 (Class 1: The value of percent of control at 10^−7 M was less than 40% or the value of IC50 was less than 50 nM.).
With `CCOc1ccc(CNC[C@H]2CC[C@@H](Nc3cc(N(C)C)c4ccccc4n3)CC2)c(OCC)c1` [compound 1170], the class under setting [1] is 2 (Class 2: The value of percent of control at 10^−7 M was from 40% to 60% or the value of IC′50 was from 50 nM to 200 nM.).
